The text below walks through data of patent US10584108B2, “Therapeutic compounds and methods of use thereof” (KUALITY HERBCEUTICS LLC, priority 2015, dated 2020).

Series [1] concerns CYP1A1 mRNA in Hepe1c1c7 cells. The series can be described thus: Test B: in vitro effect on CYP1A1 activation (CYP1A1 mRNA by q-RT PCR). It is filed as cell-based. The settings on record: 5 μM in 0.5% DMSO, ratio treated to untreated, normalized to GAPDH mRNA. As to the method:
The ability of a compound of the invention to effect CYP1A1 activation may be determined using pharmacological models which are well known to the art, or using Test B described below.
General Procedures of the In Vitro Effect on CYP1A1 Activation
Hepe1c1c7 cells were cultured under standard conditions and seeded in 6-well plate. After complete attachment (12-24 hours after seeding), the cells were treated with the corresponding compounds at the concentration of 5 μM, supplemented in 0.5% DMSO. Cells were trypsinized and pelleted. mRNAs were isolated. The relative amount of CYP1A1 mRNA were quantified via q-RT PCR and normalized to the amount of GAPDH mRNA from the same sample. Induction of CYP1A1 mRNA is defined as the ratio of CYP1A1 mRNA between treated samples to the untreated sample.

Series [2] concerns NNK-induced O^6-mG in A/J mouse lung tissues. In words: Test A: in vivo effect on NNK-induced O^6-mG in A/J mouse lung tissues. The settings on record: A/J mice, compound 0.2 mg/g of diet for seven days, NNK 100 mg/kg i.p., lung tissue four hours after NNK. An excerpt: The ability of a compound of the invention to effect NNK-induced O^6-mG in A/J mouse lung tissues may be determined using pharmacological models which are well known to the art, or using Test A described below.
General Procedure of the In Vivo Effect on NNK-induced O^6-mG in A/J Mouse Lung Tissues
Five-six week old A/J mice were purchased from Jackson Lab. After one week of acclimatization, mice were randomized into different groups. Mice were given to the AIN-G powdered diet supplemented with the corresponding compound at a dose of 0.2 mg/g of diet for seven days. Subsequently, with the exception of mice in the negative control groups, animals were given NNK (100 mg/kg of bodyweight at the beginning of Day 7 via i.p. injection) (control mice will be given saline). Four hours NNK administration, mice in each group were euthanized with serum, urine, lung and liver tissues collected. O^6-mG DNA adducts in the lung tissues were quantified following established procedures (1, 2). The relative amount of reduction was calculated as the percentage of reduction relative the amount of O^6-mG in the NNK-treated positive control group.

The subject of series [3] is NNK-induced DNA damage (O^6-mG). The settings on record: background statement, literature; cited from earlier work.
For series [4], the system named is NNK-induced lung tumorigenesis. The settings on record: background statement, literature; cited from earlier work.
Series [5] addresses T1, aryl hydrocarbon receptors (Homo sapiens, UniProt P35869).
T1 sequence (P35869 11-848): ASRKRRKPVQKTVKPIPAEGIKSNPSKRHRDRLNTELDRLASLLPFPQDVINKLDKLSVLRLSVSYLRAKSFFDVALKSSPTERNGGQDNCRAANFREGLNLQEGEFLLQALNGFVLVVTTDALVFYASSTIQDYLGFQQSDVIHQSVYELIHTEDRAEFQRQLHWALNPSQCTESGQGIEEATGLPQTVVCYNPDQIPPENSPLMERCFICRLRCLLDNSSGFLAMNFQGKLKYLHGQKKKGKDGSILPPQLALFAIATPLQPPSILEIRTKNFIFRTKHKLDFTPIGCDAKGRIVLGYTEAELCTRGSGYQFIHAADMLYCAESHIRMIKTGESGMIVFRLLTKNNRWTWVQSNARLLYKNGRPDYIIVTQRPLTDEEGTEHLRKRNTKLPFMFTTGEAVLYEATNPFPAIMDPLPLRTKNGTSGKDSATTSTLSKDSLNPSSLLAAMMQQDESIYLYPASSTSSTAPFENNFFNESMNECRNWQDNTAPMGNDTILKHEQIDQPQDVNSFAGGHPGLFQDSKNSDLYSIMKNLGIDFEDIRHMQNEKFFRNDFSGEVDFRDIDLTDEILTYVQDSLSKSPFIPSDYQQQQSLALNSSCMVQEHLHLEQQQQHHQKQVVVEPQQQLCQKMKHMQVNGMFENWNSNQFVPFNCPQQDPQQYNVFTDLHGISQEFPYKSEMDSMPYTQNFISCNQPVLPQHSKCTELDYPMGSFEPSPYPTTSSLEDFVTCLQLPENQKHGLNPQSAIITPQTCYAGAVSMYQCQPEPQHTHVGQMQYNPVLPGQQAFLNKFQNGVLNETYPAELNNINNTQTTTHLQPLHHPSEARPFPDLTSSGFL
The note with it: background statement, literature; cited from earlier work.

Take `COC1=CC(=O)OC(/C=C/c2ccc3c(c2)OCO3)C1` (stereo not drawn): in series [1], the “Induction of CYP1A1 mRNA” value turned out to be 0.26 ± 0.01. Also, the “Relative amount of reduction in O^6-mG (mean ± SD) % in comparison to NNK-treated control” value in series [2] worked out at 54.6 ± 1.2%.
In the case of `COC1=CC(=O)O[C@@H](CCc2ccc3c(c2)OCO3)C1` [(+)-Dihydromethysticin], the “Inhibition of NNK-induced O^6-mG DNA damage” value in series [3] is on record as “can be inhibited”. For the same compound, the “Block of NNK-induced lung tumorigenesis” value in series [4] is given as “effectively block”.
On to `O=C1C=CCC(CCc2ccc3c(c2)OCO3)O1` (stereo not drawn), for which the “Induction of CYP1A1 mRNA” value in series [1] stood at 5.94 ± 0.22. Also, the “Relative amount of reduction in O^6-mG (mean ± SD) % in comparison to NNK-treated control” value in series [2] amounted to 35.2 ± 31.8%.
Take `COC1=CC(=O)OC(C)(CCc2ccc3c(c2)OCO3)C1` (stereo not drawn): the “Induction of CYP1A1 mRNA” value in series [1] is on record as 2.49 ± 0.08. For the same compound, in series [2], the “Relative amount of reduction in O^6-mG (mean ± SD) % in comparison to NNK-treated control” value is 56.2 ± 8.1%.
For the compound `COC1=CC(=O)OC(CCc2ccc3c(c2)OCO3)C1` (stereo not drawn), the “Relative amount of reduction in O^6-mG (mean ± SD) % in comparison to NNK-treated control” value in series [2] worked out at 72.7 ± 6.6%.
Take `COC1=CC(=O)OC(CCc2ccc3c(c2)OCCO3)C1` (stereo not drawn): the “Induction of CYP1A1 mRNA” value in series [1] turned out to be 3.73 ± 0.26. The “Relative amount of reduction in O^6-mG (mean ± SD) % in comparison to NNK-treated control” value in series [2] amounted to 3.24 ± 13.4%.
Turning to `COC1=CC(=O)OC(CCc2ccc3c(c2)CCC3)C1` (stereo not drawn), the “Induction of CYP1A1 mRNA” value in series [1] was found to be 0.79 ± 0.02. The “Relative amount of reduction in O^6-mG (mean ± SD) % in comparison to NNK-treated control” value in series [2] was determined as 29.7 ± 16.3%.
The corresponding values for `COC1=CC(=O)O[C@@H](CCc2ccc3c(c2)OCO3)C1` [drawing 26] are 1.88 ± 0.07 and 76.9 ± 2.6%.
Taken in the same sequence, the figures for `O=C1C=C(O)CC(CCc2ccc3c(c2)OCO3)O1` (stereo not drawn) were 1.20 ± 0.1 and 55.9 ± 19.7%.
Regarding `COC1=CC(=O)O[C@H](CCc2ccc3c(c2)OCO3)C1`, the “Relative amount of reduction in O^6-mG (mean ± SD) % in comparison to NNK-treated control” value in series [2] is given as 79.6 ± 1.5%.
For the compound `COC1=CC(=O)OC(CCc2ccc3c(c2)OCO3)C1C` (stereo not drawn), in series [1], the “Induction of CYP1A1 mRNA” value is on record as 2.16 ± 0.11.
In the case of `COC1=CC(=O)OC(/C=C/c2ccc3c(c2)OCCO3)C1` (stereo not drawn) [drawing 40], the “Induction of CYP1A1 mRNA” value in series [1] was determined as 1.15 ± 0.02. Besides, the “Relative amount of reduction in O^6-mG (mean ± SD) % in comparison to NNK-treated control” value in series [2] is 5.2 ± 13.0%.
As for `COC1=CC(=O)OC(/C=C/c2ccc3c(c2)OCCO3)C1` (stereo not drawn) [drawing 65], the “Relative amount of reduction in O^6-mG (mean ± SD) % in comparison to NNK-treated control” value in series [2] amounted to 5.2 ± 13.0%.
On to `COC1=CC(=O)OC(CCc2ccc(OC)c(O)c2)C1` (stereo not drawn), for which the “Induction of CYP1A1 mRNA” value in series [1] worked out at 5.61 ± 0.40. For the same compound, the “Relative amount of reduction in O^6-mG (mean ± SD) % in comparison to NNK-treated control” value in series [2] was −2.6 ± 14.7%.
Taken in the same sequence, the figures for `COC1=CC(=O)CC(CCc2ccc3c(c2)OCO3)C1` (stereo not drawn) were 5.58 ± 0.55 and 63.7 ± 21.9%.
Take `COC1=CC(=O)CC(CCc2ccc3c(c2)CCC3)C1` (stereo not drawn): the “Relative amount of reduction in O^6-mG (mean ± SD) % in comparison to NNK-treated control” value in series [2] amounted to 11.8 ± 23.1%.
Regarding `COC1=CC(=O)O[C@@H](CCc2ccc3c(c2)OCO3)C1` [dihydromethysticin], the “Activation of aryl hydrocarbon receptors” value in series [5] is on record as “activate”.
On to `COC1=C(C)C(=O)OC(CCc2ccc3c(c2)OCO3)C1` (stereo not drawn), for which the “Induction of CYP1A1 mRNA” value in series [1] amounted to 0.59 ± 0.04. In addition, in series [2], the “Relative amount of reduction in O^6-mG (mean ± SD) % in comparison to NNK-treated control” value came out at 65.3 ± 5.8%.
